The record followed here is patent publication US20260256756A1, “USE OF PIPERIDINE ALKENE COMPOUND IN PREPARATION OF DRUG FOR TREATING CANCER” (JIANGSU HANSOH PHARMACEUTICAL GROUP CO., LTD., priority 2023, published 2026).

Structures are written as SMILES.

One assay concerns OVCAR-3 cells. Description: In vitro proliferation inhibition (CellTiter-Glo), OVCAR-3. The format is cell-based. The settings on record: Homo sapiens; OVCAR-3, ovarian cancer; 6-10 days culture. An excerpt: […]
Experimental data processing method: The luminescence signal value was used to calculate the inhibition rate. […]

Assay [1] has as its system human colorectal cancer cell line DLD-1 BRCA2−/− xenograft tumor. Put plainly: Subcutaneous xenograft tumor model of human colorectal cancer cell line DLD-1 BRCA2−/−. It counts as in vivo, BALB/c nude mice. The settings on record: DLD-1 BRCA2 deletion. An excerpt: • 1. Experimental objective: To evaluate the in vivo efficacy of compound 1 in a subcutaneous xenograft tumor model of human colorectal cancer cell line DLD-1 BRCA2^−/− in nude mice. • 2. Reagent • RPMI-1640 medium (22400-089, Gibco), fetal bovine serum (FBS) (10099-141C, Gibco) • Phosphate buffer (PBS, 10010-023, Gibco), HPMC (D180HB4005, Shanghai Colorcon Coating Technology Ltd.) • 0.25% Trypsin-EDTA (25200-056, Gibco), Pen Strep (P/S) (15140-122, Gibco) • 3. Experimental operations and data processing • 3.1 Animals: BALB/c nude mice, 6-8 weeks old, female, purchased from the Laboratory Animal Business Department of Shanghai Institute of Planned Parenthood Research. • 3.2 Cell culture and cell suspension preparation • a. A vial of DLD-1 BRCA2^−/− cells was taken from a cell bank, the cells were thawed with RPMI-1640 medium (RPMI-1640+10% FBS), and the thawed cells were placed in a cell culture flask (with the cell type, date, the name of the culture operator, etc., being marked on the wall of the flask), which were placed in a CO2 incubator for culturing (wherein the temperature of the incubator was 37° C., and the CO2 concentration was 5%). • b. The cells were passaged every three days, and after passage, the cells were placed in the CO2 incubator to continue the culture. This process was repeated until the cell number met the requirements for in vivo efficacy. • c. The cultured cells were collected, counted using a full-automatic cell counter, and resuspended with PBS on the basis of the counting results to prepare a cell suspension (at a density of 5×10^7/mL), which was then placed in an ice box for later use. • 3.3 Cell inoculation • a. Before inoculation, the nude mice were marked with disposable universal ear tags for mice and rats. • b. At the time of inoculation, the cell suspension was mixed uniformly, 0.1-1 mL of the cell suspension was aspirated using a 1 mL syringe with air bubbles expelled, and the syringe was then placed on an ice bag for later use. • c. The nude mouse was secured with the left hand, the right dorsal area near the right shoulder (inoculation site) of the nude mouse was disinfected with a 75% alcohol cotton ball, and inoculation was initiated after 30 seconds. • d. The experimental nude mice were inoculated sequentially (0.1 mL of cell suspension per mouse). • 3.4 Tumor measurement, grouping and administration in tumor-bearing mice • a. Tumor was measured on days 10-18 after inoculation depending on the tumor growth, and the tumor size was calculated.
tumor volume (mm^3)=length (mm)×width (mm)×width (mm)/2 Tumor volume calculation: • b. According to the body weight of tumor-bearing mice and the size of the tumor, the mice were grouped by random grouping. • c. According to the grouping results, the test drug was started to be administered (administration method: oral administration; administration volume: 10 mL/kg; administration frequency: once/day; administration cycle: 28 days; vehicle: 0.5% HPMC). • d. Tumor measurement and weighing were performed twice a week after starting administration of test drugs. • e. The animals were euthanized at the end of the experiment. • f. Data processing was performed using software such as GraphPad Prism. The tumor inhibitory efficacy of the compound was evaluated by TGI (%) and ΔT/ΔC (%). ΔT/ΔC (%)=(T−T0)/(C−C0)×100, where T and C are the tumor volumes of the treatment group and the vehicle control group at the end of the experiment, respectively, and T0 and C0 are the tumor volumes of the treatment group and the vehicle control group at the beginning of the experiment, respectively. Tumor growth inhibition (TGI) (%)=100−ΔT/ΔC (%). Tumor growth inhibition (TGI) (%)=100−(T−T0)/T0×100 when tumor regression occurs • 4. Experimental results and conclusions

Where [2] appears, read: 0.3 mg/kg oral once/day, Day 28.
Where [3] appears, read: 100 mg/kg oral once/day, Day 28.

As for `CCc1cc2ncc(CN3CCN(c4ccc(C(=O)NC)nc4)CC3)cc2[nH]c1=O` [AZD5305], in the assay on OVCAR-3 cells, the IC50 was 0.0051 ± 0.0014 µM. In addition, the “Tumor volume (Mean ± SEM)” value in assay [1] (0.3 mg/kg oral once/day, Day 0) is recorded as 154 ± 12 mm^3. Further, in assay [1] (setting [2]), the T/C came out at 6.20%, the TGI was 140.20% and the “Tumor volume (Mean ± SEM)” value worked out at 92 ± 22 mm^3.

`O=C(c1cc(Cc2n[nH]c(=O)c3ccccc23)ccc1F)N1CCN(C(=O)C2CC2)CC1` [Olaparib]: the concentration for half-maximal inhibition (IC50) in the assay on OVCAR-3 cells is 0.319 ± 0.047 µM. Further, the “Tumor volume (Mean ± SEM)” value in assay [1] (100 mg/kg oral once/day, Day 0) came to 154 ± 13 mm^3. Besides, in assay [1] (setting [3]), the T/C came to 63.43%, the TGI is recorded as 40.81% and the “Tumor volume (Mean ± SEM)” value worked out at 942 ± 112 mm^3.
